Data on nine compounds can be found in patent US12459951B2, “Compounds that interact with RAS superfamily proteins for treatment of cancers, inflammatory diseases, rasopathies, and fibrotic disease” (SHY Therapeutics, LLC, priority 2022, dated 2025).

One test relates to IL6. The test can be described thus: IL-6 Quantification Assay (ELISA), LPS-stimulated RAW 264.7. The class given is cell-based. Set-up: inhibition: dose or concentration left out as unconfirmed. As to conditions: Mus musculus, RAW264.7, read-out: IL-6: % inh.
Test [1] deals with Smad2/Smad3 phosphorylation. As to the kind of experiment: Phospho-Smad2/3 Inhibition Assay (western blot), Panc-1. The class given is cell-based, human. To be noted: at 10 μM, Panc-1 pancreatic cancer cell line; starred symbols = activation. The procedure, abridged:
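Panc-1 cells (KRas G12D), starved overnight in 0.5% FBS, treated 3 h at 37° C with compound at 10 μM final (0.3% DMSO) or serial dilutions for IC50, then stimulated with 10 ng/ml TGF-b1 for 1 h. Phospho-Smad2 (Ser465/467) and phospho-Smad3 (Ser423/425) detected by western blot.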
On the technique in general: A western blot detects proteins with antibodies after separation by electrophoresis.

For a further test, the system named is KRas G12C mutant. As to the kind of experiment: Ras GTP Binding Domain Inhibition Assay (Ras Superfamily Assay). To be noted: 20 μM compound; for KRas G12C mutant + SOS: % inh.: with SOS; for KRas G12C mutant: % inh.: without SOS. In short, it runs like this: (§1)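 Ni-plate capture of His-tagged protein (10-30 μg/mL, o/n 4° C); cpd 20 μM or dilution series, 1% DMSO, 3 h RT ± Sos 556-1049 last h; 100 nM Cy-labelled GTP 45 min RT; 3× wash; fluorescence read.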

A further test has as its target T1, Rac-1 (Homo sapiens, UniProt P63000).
T1 construct: made in house
Described as above. To be noted: read-out: Rac-1: % inh. The procedure, abridged: as §1

The next test relates to KRas Q61H mutant. The test is described as above. To be noted: 20 μM compound; for KRas Q61H mutant + SOS: % inh.: with SOS; for KRas Q61H mutant: % inh.: without SOS. The procedure, abridged: as §1

With `COc1cncnc1Nc1nc(-c2nccn2C)nn2cc(-c3ccn(C(C)C)n3)c(C)c12` [Compound 73, 6-(1-Isopropyl-1H-pyrazol-3-yl)-N-(5-methoxypyrimidin-4-yl)-5-methyl-2-(1-methyl-1H-imidazol-2-yl)pyrrolo[2,1-f][1,2,4]triazin-4-amine], the inhibition in the test with IL6 was in the range of 50 to 74%. Moreover, the “% inh of Smad2/3 phosphorylation in Panc-1” value (“% inh … in Panc-1” for short) in test [1] was “B* (B* = 26-45% activation)”. In addition, in the test with KRas G12C mutant, the “KRas G12C mutant + SOS: % inh.” value was “B (B = 26-49% inhibition)” and the “KRas G12C mutant: % inh.” value is listed as “B (B = 26-49% inhibition)”. Further, the inhibition at 20 µM at Rac-1 is 50 to 75%. In addition, in the test on KRas Q61H mutant, the “KRas Q61H mutant + SOS: % inh.” value was “C (C = 50-75% inhibition)” and the “KRas Q61H mutant: % inh.” value is “C (C = 50-75% inhibition)”.

For `Cc1c(-c2ccn(C(C)C)n2)cn2nc(-c3nccn3C)nc(Nc3cc(C4CC4)n[nH]3)c12` [Compound 68, N-(3-Cyclopropyl-1H-pyrazol-5-yl)-6-(1-isopropyl-1H-pyrazol-3-yl)-5-methyl-2-(1-methyl-1H-imidazol-2-yl)pyrrolo[2,1-f][1,2,4]triazin-4-amine], in the test on IL6, the inhibition fell in the range of 1 to 24%. For the same compound, in test [1], the “% inh … in Panc-1” value is “A* (A* = 1-25% activation)”. Also, in the test with KRas G12C mutant, the “KRas G12C mutant + SOS: % inh.” value is on record as “D (D = 76-100% inhibition)” and the “KRas G12C mutant: % inh.” value is on record as “D (D = 76-100% inhibition)”. For the same compound, on Rac-1, the inhibition at 20 µM lay in the range of 76 to 100%. In addition, in the test on KRas Q61H mutant, the “KRas Q61H mutant + SOS: % inh.” value was “D (D = 76-100% inhibition)” and the “KRas Q61H mutant: % inh.” value is given as “D (D = 76-100% inhibition)”.

Regarding `Cc1c(-c2ccn(C(C)C)n2)cn2nc(-c3nccn3C)nc(Nc3ccn(C)n3)c12` [Compound 61, 6-(1-Isopropyl-1H-pyrazol-3-yl)-5-methyl-2-(1-methyl-1H-imidazol-2-yl)-N-(1-methyl-1H-pyrazol-3-yl)pyrrolo[2,1-f][1,2,4]triazin-4-amine], the inhibition in the test on IL6 was in the range of 1 to 24%. Besides, the “% inh … in Panc-1” value in test [1] was “B (B = 26-45% inhibition)”. In addition, in the test on KRas G12C mutant, the “KRas G12C mutant + SOS: % inh.” value is on record as “D (D = 76-100% inhibition)” and the “KRas G12C mutant: % inh.” value is “D (D = 76-100% inhibition)”. Moreover, the inhibition at 20 µM at Rac-1 lay in the range of 76 to 100%. Further, in the test on KRas Q61H mutant, the “KRas Q61H mutant + SOS: % inh.” value is reported as “D (D = 76-100% inhibition)” and the “KRas Q61H mutant: % inh.” value was “D (D = 76-100% inhibition)”.

`COc1cccc(-c2cn3nc(-c4nccn4C)nc(N[C@H]4C[C@@H](OC)C4)c3c2-c2ccccc2)c1Cl` [Compound 31, 6-(2-Chloro-3-methoxyphenyl)-N-((1s,3s)-3-methoxycyclobutyl)-2-(1-methyl-1H-imidazol-2-yl)-5-phenylpyrrolo[2,1-f][1,2,4]triazin-4-amine]: in the test with IL6, the inhibition was in the range of 75 to 100%. In test [1], the “% inh … in Panc-1” value is “D (D = 76-100% inhibition)”. Moreover, in the test on KRas G12C mutant, the “KRas G12C mutant + SOS: % inh.” value is recorded as 0 (0 = 0% inhibition) and the “KRas G12C mutant: % inh.” value is on record as “A (A = 1-25% inhibition)”. For the same compound, on Rac-1, the inhibition at 20 µM lay in the range of 1 to 25%. Moreover, in the test on KRas Q61H mutant, the “KRas Q61H mutant + SOS: % inh.” value was “A (A = 1-25% inhibition)” and the “KRas Q61H mutant: % inh.” value is given as 0 (0 = 0% inhibition).

For `COCCNc1nc(-c2nccn2C)nn2cc(-c3ccn(C(C)C)n3)c(C(C)C)c12` [Compound 35, 5-Isopropyl-6-(1-isopropyl-1H-pyrazol-3-yl)-N-(2-methoxyethyl)-2-(1-methyl-1H-imidazol-2-yl)pyrrolo[2,1-f][1,2,4]triazin-4-amine], the inhibition in the test on IL6 is 25 to 49%. Moreover, the “% inh … in Panc-1” value in test [1] is “A (A = 1-25% inhibition)”. In addition, in the test on KRas G12C mutant, the “KRas G12C mutant + SOS: % inh.” value is on record as 0 (0 = 0% inhibition) and the “KRas G12C mutant: % inh.” value is on record as “A (A = 1-25% inhibition)”. The inhibition at 20 µM on Rac-1 came to 0%. In the test on KRas Q61H mutant, the “KRas Q61H mutant + SOS: % inh.” value is “A (A = 1-25% inhibition)” and the “KRas Q61H mutant: % inh.” value is “A (A = 1-25% inhibition)”.

Turning to `Cc1c(-c2ccn(C(C)C)n2)cn2nc(-c3nccn3C)nc(Nc3cc(C4CC4)no3)c12` [Compound 69, 3-Cyclopropyl-N-(6-(1-isopropyl-1H-pyrazol-3-yl)-5-methyl-2-(1-methyl-1H-imidazol-2-yl)pyrrolo[2,1-f][1,2,4]triazin-4-yl)isoxazol-5-amine], the inhibition in the test on IL6 is 50 to 74%. Moreover, the “% inh … in Panc-1” value in test [1] is recorded as “A (A = 1-25% inhibition)”. Further, in the test with KRas G12C mutant, the “KRas G12C mutant + SOS: % inh.” value is reported as 0 (0 = 0% inhibition) and the “KRas G12C mutant: % inh.” value is “A (A = 1-25% inhibition)”. The inhibition at 20 µM on Rac-1 lay in the range of 1 to 25%. For the same compound, in the test on KRas Q61H mutant, the “KRas Q61H mutant + SOS: % inh.” value is recorded as 0 (0 = 0% inhibition) and the “KRas Q61H mutant: % inh.” value is given as “A (A = 1-25% inhibition)”.

For `COc1ccnc(Nc2nc(-c3nccn3C)nn3cc(-c4ccn(C(C)C)n4)c(C)c23)n1` [Compound 53, 6-(1-Isopropyl-1H-pyrazol-3-yl)-N-(4-methoxypyrimidin-2-yl)-5-methyl-2-(1-methyl-1H-imidazol-2-yl)pyrrolo[2,1-f][1,2,4]triazin-4-amine], the inhibition in the test with IL6 was in the range of 50 to 74%. For the same compound, the “% inh … in Panc-1” value in test [1] is recorded as “B (B = 26-45% inhibition)”. In the test on KRas G12C mutant, the “KRas G12C mutant + SOS: % inh.” value was “C (C = 50-75% inhibition)” and the “KRas G12C mutant: % inh.” value was “C (C = 50-75% inhibition)”. Moreover, at Rac-1, the inhibition at 20 µM was in the range of 76 to 100%. Moreover, in the test on KRas Q61H mutant, the “KRas Q61H mutant + SOS: % inh.” value is reported as “D (D = 76-100% inhibition)” and the “KRas Q61H mutant: % inh.” value was “D (D = 76-100% inhibition)”.

For `COc1cccc(-c2cn3nc(-c4nccn4C)nc(O)c3c2-c2ccccc2)c1Cl` [Compound 28, 6-(2-Chloro-3-methoxyphenyl)-2-(1-methyl-1H-imidazol-2-yl)-5-phenylpyrrolo[2,1-f][1,2,4]triazin-4-ol], the inhibition in the test with IL6 was in the range of 25 to 49%. Besides, in test [1], the “% inh … in Panc-1” value was 0 (0 = 0% inhibition). Besides, in the test with KRas G12C mutant, the “KRas G12C mutant + SOS: % inh.” value was “A (A = 1-25% inhibition)” and the “KRas G12C mutant: % inh.” value is reported as “A (A = 1-25% inhibition)”. Besides, the inhibition at 20 µM at Rac-1 was in the range of 26 to 49%. Also, in the test with KRas Q61H mutant, the “KRas Q61H mutant + SOS: % inh.” value is “A (A = 1-25% inhibition)” and the “KRas Q61H mutant: % inh.” value is “A (A = 1-25% inhibition)”.

With `COc1cccc(-c2cn3nc(-c4nccn4C)nc(N[C@@H]4CC[C@H](OC)C4)c3c2-c2ccccc2)c1Cl` (racemic) [Compound 33, rac 6-(2-Chloro-3-methoxyphenyl)-N-((1R,3S)-3-methoxycyclopentyl)-2-(1-methyl-1H-imidazol-2-yl)-5-phenylpyrrolo[2,1-f][1,2,4]triazin-4-amine], the inhibition at 10 µM in the test with IL6 (at 10 μM) was 75 to 100%. Also, in test [1], the “% inh … in Panc-1” value was “D (D = 76-100% inhibition)”. Besides, in the test with KRas G12C mutant, the “KRas G12C mutant + SOS: % inh.” value is reported as 0 (0 = 0% inhibition) and the “KRas G12C mutant: % inh.” value is given as “A (A = 1-25% inhibition)”. Besides, on Rac-1, the inhibition at 20 µM came to 0%. Moreover, in the test on KRas Q61H mutant, the “KRas Q61H mutant + SOS: % inh.” value is listed as 0 (0 = 0% inhibition) and the “KRas Q61H mutant: % inh.” value is reported as “A (A = 1-25% inhibition)”.
